The values that follow are results of earlier work, collected in patent publication US11160861B2, “Adjuvanting systems and water-free vaccine compositions comprising a polyI:C polynucleotide adjuvant and a lipid-based adjuvant” (priority 2015, dated 2021).

The conditions of data set [1]: variety of animal models and Phase I clinical trial in humans (Moyle 2008; Wiedemann 1991).
A further data set concerns murine DCs. Particulars: in vitro stimulation of murine DCs, small amounts of adjuvant relative to other TLR agonists (Welters 2007).

As to `CCCCCCCCCCCCCCCC(=O)N[C@@H](CSC[C@@H](COC(=O)CCCCCCCCCCCCCCC)OC(=O)CCCCCCCCCCCCCCC)C(=O)O` [Pam3Cys, tripalmitoyl-S-glyceryl-cysteine], the Side effects result in data set [1] is reported as “no reported side effects”. Also, the “Production of pro-inflammatory cytokines IL-12p40, IL-6 and TNFα” value in the data set on murine DCs is on record as “high levels”.
